For experiment [1], the target named is BCL-2 (binding to BAD peptide) (Homo sapiens, UniProt P10415). As to the kind of experiment: SPR (Biacore) solution inhibition assay, BCL-2 binding to immobilized BAD peptide. The settings on record: biotinylated BAD peptide surface, 56 nM BCL-2, 25° C.; range = high and low IC50 values from multiple experiments; read-out: BCL2_SPR IC50 BAD. In a few lines: (§1)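 Compounds (6-point threefold series, 16 μM to 0.004 nM) preincubated 1 h with 56 nM BCL-2, then injected 60 s over biotinylated peptide captured on streptavidin chips at 25° C. Running buffer: 10 mM HEPES pH 7.4, 150 mM NaCl, 1.25 mM DTT, 3% DMSO, 0.05% polysorbate 20. % inhibition versus BCL-2-only binding gave IC50.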
For orientation: In SPR one partner is held on a chip, and binding of the other changes the refractive index at the surface.

Experiment [2] concerns the target BCL-2 (binding to BAK peptide) (Homo sapiens, UniProt P10415). As to the kind of experiment: SPR (Biacore) solution inhibition assay, BCL-2 binding to immobilized BAK peptide. The settings on record: biotinylated BAK peptide surface, 56 nM BCL-2, 25° C.; range = high and low IC50 values from multiple experiments; read-out: BCL2_SPR IC50 BAK. In a few lines: as §1

BCL-2 (binding to BAK peptide), sequence (P10415 whole entry): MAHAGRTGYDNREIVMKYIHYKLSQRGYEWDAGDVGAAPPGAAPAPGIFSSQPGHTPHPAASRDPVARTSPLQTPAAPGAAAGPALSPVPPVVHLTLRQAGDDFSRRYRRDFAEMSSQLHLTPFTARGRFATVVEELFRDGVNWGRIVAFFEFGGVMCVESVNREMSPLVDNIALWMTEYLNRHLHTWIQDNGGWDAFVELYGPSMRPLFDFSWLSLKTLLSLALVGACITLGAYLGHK
BCL-2 (binding to BAD peptide), sequence (P10415 whole entry): as above

`CCCCN(CCCC)C(=O)c1cc(C)n(-c2ccc(NC(=O)C(C)CC(=O)O)cc2C(=O)N2Cc3ccccc3C[C@H]2CO)n1` (some centres unmarked) [Example 37]: the IC50 (in general, the concentration needed to halve the response being measured) in experiment [1] was in the range of 0.172 to 0.174 µM; in experiment [2] it was 0.127 to 0.129 µM.

In the case of `CCCCN(CCCC)C(=O)c1cc(C)n(-c2ccc(NC(=O)OCC(C)C)cc2C(=O)N2Cc3ccccc3C[C@H]2CO)n1` [Example 9], the values for the IC50 in experiment [1] and in experiment [2] were 0.499 to 0.606 µM and 0.394 to 0.452 µM, respectively.

In the case of `CCCCN(CCCC)C(=O)c1cc(C)n(-c2ccc(NC(=O)C(OC)c3ccccc3)cc2C(=O)N2Cc3ccccc3C[C@H]2CO)n1` (some centres unmarked) [Example 72], the half-maximal inhibitory concentration (IC50) in experiment [1] was 0.0568 to 0.0588 µM; in experiment [2] it was 0.0485 to 0.0496 µM.

Regarding `CCCCN(CCCC)C(=O)c1cc(C)n(-c2ccc(NC(=O)Cc3ccccc3F)cc2C(=O)N2Cc3ccccc3C[C@H]2CO)n1` [Example 57], the IC50 in experiment [1] is 0.0773 to 0.0796 µM; in experiment [2], 0.0631 to 0.0669 µM.

As to `CCCCN(CCCC)C(=O)c1cc(C)n(-c2ccc(NC(=O)C(Cc3ccccc3)(Cc3ccccc3)C(=O)O)cc2C(=O)N2Cc3ccccc3C[C@H]2CO)n1` [Example 26], the IC50 lay in the range of 0.046 to 0.0631 µM in experiment [1] and 0.0437 to 0.0545 µM in experiment [2].

For the compound `CCCCN(CCCC)C(=O)c1cc(C)n(-c2ccc(NC(=O)Cc3cccc(C#N)c3)cc2C(=O)N2Cc3ccccc3C[C@H]2CO)n1` [Example 160], the half-maximal inhibitory concentration (IC50) was in the range of 0.229 to 0.238 µM in experiment [1] and 0.18 to 0.193 µM in experiment [2].

As to `CCCCN(CCCC)C(=O)c1cc(C)n(-c2ccc(NC(=O)c3oc(-c4ccccc4)nc3C)cc2C(=O)N2Cc3ccccc3C[C@H]2CO)n1` [Example 46], the results for the IC50 in experiment [1] and in experiment [2] were 0.628 to 0.76 µM and 0.692 to 0.84 µM, respectively.

Values taken from patent publication US20140357633A1, “COMPOUNDS FOR INHIBITING THE INTERACTION OF BCL2 WITH BINDING PARTNERS” (NOVARTIS AG, priority 2011, published 2014).
